Where two headings read alike, the source gives them in different places.

We go through 5 compounds from patent US20230063703A1, “DRUG AND FOOD FOR TREATING AND/OR PREVENTING ENTERITIS AND/OR HEPATITIS” (priority 2020, published 2023).

The test system of data set [1] is DSS-induced colitis model mice. The data set is described as follows: Enteritis-inhibiting effect of single species D-amino acids in DSS-induced colitis model mice. The class given is in vivo, mice (B6CL57). The following applies: single D-amino acid in drinking water 3 weeks, then 2% DSS; 8th day; compared with water containing all five D-amino acids. On the procedure: The DAI scores were assigned for the following: diarrhea symptom (normal: 0, soft feces: 1, mild diarrhea: 2, moderate diarrhea: 3, severe diarrhea: 4); bloody stool symptom (normal: 0, mild bloody stool: 1, moderate bloody stool: 2, severe bloody stool: 3, severe bloody stool with anal bleeding: 4); and body weight reduction (None: 0, 1% to 5%: 1, 5% to 10%: 2, 10% to 20%: 3, ÷20%: 4), and the total values were calculated (minimum 0 points, maximum 12 points), for each mouse.

A further data set deals with kidneys. To be noted: cited from earlier work; for toxicity on the kidneys: rat, in vivo, ip; for amino acid excretion: after 2 hours.
Data set [2] in a line: Blood D-serine concentration in mice given drinking water containing D-serine. The class given is in vivo. To be noted: free access to drinking water containing 1% D-serine. From the text: The blood concentration of administered D-serine is preferably 5 nmol/mL or greater, more preferably 10 nmol/mL or greater and even more preferably 50 nmol/mL or greater. The D-serine blood concentration is also preferably 1 μmol/mL or lower, more preferably 0.5 μmol/mL or lower and even more preferably 0.1 μmol/mL or lower.

Take `C[C@@H](N)C(=O)O` [D-Ala, D-alanine]: in data set [1], the DAI score result was “equivalent to drinking water containing all five D-amino acids” and the “body weight reduction suppressing effect” value is “equivalent to drinking water containing all five D-amino acids”.
For `N[C@H](CC(=O)O)C(=O)O` [D-Asp, D-aspartic acid], in data set [1], the DAI score entry is “equivalent to drinking water containing all five D-amino acids” and the “body weight reduction suppressing effect” value is listed as “equivalent to drinking water containing all five D-amino acids”.
Regarding `N[C@H](CCC(=O)O)C(=O)O` [D-Glu, D-glutamic acid], in data set [1], the DAI score entry is on record as “significantly inhibited enteritis more than the drinking water containing all five D-amino acids” and the “body weight reduction suppressing effect” value was “significantly inhibited enteritis more than the drinking water containing all five D-amino acids”.
For `N[C@H](CO)C(=O)O` [D-Ser, D-serine], the “toxicity on the kidneys” value in the data set on kidneys (26 mg/kg) is on record as “no toxicity”; in the data set with kidneys (267 mg/kg), “toxicity of D-serine on the kidneys was exhibited”; with kidneys (800 mg/kg), “toxicity of D-serine on the kidneys was exhibited”. For the same compound, the amino acid excretion result with kidneys (rats, intraperitoneal, 26 mg/kg) is given as “no effect”; in the data set on kidneys (rats, intraperitoneal, 80 mg/kg) it was “no effect”; in the data set with kidneys (rats, intraperitoneal, 267 mg/kg), “significantly increased”; in the data set with kidneys (rats, intraperitoneal, 800 mg/kg), “significantly increased”. Also, the nephrotoxicity result in the data set with kidneys (rats, intraperitoneal, doses such as 800 mg/kg, 400 mg/kg or 250 mg/kg) is “causes nephrotoxicity”. Moreover, the “blood D-serine concentration” value in data set [2] is 100 nmol/mL. Besides, in data set [1], the DAI score result is given as “equivalent to drinking water containing all five D-amino acids”. Besides, in data set [1], the “body weight reduction suppressing effect” value was “equivalent to drinking water containing all five D-amino acids”.
Turning to `N[C@H](Cc1c[nH]c2ccccc12)C(=O)O` [D-Trp, D-tryptophan], in data set [1], the DAI score result is “significantly inhibited enteritis more than the drinking water containing all five D-amino acids” and the “body weight reduction suppressing effect” value is “significantly inhibited enteritis more than the drinking water containing all five D-amino acids”.
